Measurements reported in patent publication US9695155B2, “Herbicidal substituted pyrimidinyloxy benzene compounds” (E. I. DU PONT DE NEMOURS AND COMPANY, priority 2013, dated 2017).

Columns and labels:
galium [1] = assay: Test C preemergence; format: in vivo, Galium aparine; conditions: Galium, pre-emergence
In short: (§1)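 Greenhouse herbicide screen. Pre: seeded loam/sand, sprayed at planting. Post: 1–4 leaf plants (2–18 cm) in peat-based mix. Formulation: solvent mixture + surfactant, non-phytotoxic. Readout: visual % control vs untreated, 13–15 d; dash = not tested.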

soybean = assay: Test C postemergence; format: in vivo, Glycine max; conditions: Glycine max, post-emergence
In short: as §1

corn = assay: Test A preemergence; format: in vivo, Zea mays; conditions: Zea mays, pre-emergence, 240 h
In short: (§2)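 Injury scores run from 0, no effect, to 100, complete control, judged by eye against untreated plants roughly 10 days after treatment. Chemicals carried a surfactant in a non-phytotoxic solvent and went onto loam–sand soil preemergence or onto one- to two-leaf seedlings postemergence.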

morningglory = assay: Test C preemergence; format: in vivo, Ipomoea coccinea; conditions: Ipomoea, pre-emergence
In short: as §1

lambsquarters = assay: Test C postemergence; format: in vivo, Chenopodium album; conditions: Chenopodium album, post-emergence
In short: as §1

Italian ryegrass = assay: Test C preemergence; format: in vivo, Lolium multiflorum; conditions: Lolium multiflorum, pre-emergence
In short: as §1

barnyardgrass [2] = assay: Test A postemergence; format: in vivo, Echinochloa crus-galli; conditions: Echinochloa crus-galli, post-emergence, 240 h
In short: as §2

johnsongrass = assay: Test C preemergence; format: in vivo, Sorghum halepense; conditions: Sorghum halepense, pre-emergence
In short: as §1

barnyardgrass [3] = assay: Test A preemergence; format: in vivo, Echinochloa crus-galli; conditions: Echinochloa crus-galli, pre-emergence, 240 h
In short: as §2

galium [4] = assay: Test C postemergence; format: in vivo, Galium aparine; conditions: Galium, post-emergence
In short: as §1

velvetleaf = assay: Test C postemergence; format: in vivo, Abutilon theophrasti; conditions: Abutilon theophrasti, post-emergence
In short: as §1

giant foxtail = assay: Test C postemergence; format: in vivo, Setaria faberii; conditions: Setaria faberi, post-emergence
In short: as §1

ragweed = assay: Test C postemergence; format: in vivo, Ambrosia elatior; conditions: Ambrosia artemisiifolia, post-emergence
In short: as §1

blackgrass = assay: Test C postemergence; format: in vivo, Alopecurus myosuroides; conditions: Alopecurus myosuroides, post-emergence
In short: as §1

wheat = assay: Test A postemergence; format: in vivo, Triticum aestivum; conditions: Triticum aestivum, post-emergence, 240 h
In short: as §2

[5] = 125 g ai/ha, 0 to 100 scale where 0 is no effect and 100 is complete control, read-out: Plant response rating, Barnyardgrass

**Q.** What does the source list for `N#Cc1cccc(Oc2ncc(Cl)cn2)c1-n1cc(Br)cn1` [Compound 52, 2-(4-bromo-1H-pyrazol-1-yl)-3-[(5-chloro-2-pyrimidinyl)oxy]benzonitrile]?
**A.** pest or weed control at 62 g/ha (galium [1]; 62 g ai/ha, preemergence, scale 0 (no effect) to 100 (complete control), read-out: Galium plant response rating): 100%; pest or weed control at 125 g/ha (galium [1]; 125 g ai/ha, preemergence, scale 0 (no effect) to 100 (complete control), read-out: Galium plant response rating): 100%; pest or weed control at 250 g/ha (galium [1]; 250 g ai/ha, preemergence, scale 0 (no effect) to 100 (complete control), read-out: Galium plant response rating): 100%; pest or weed control at 31 g/ha (galium [1]; Preemergence, 31 g ai/ha, scale 0 to 100, 0 no effect, 100 complete control, read-out: Plant response rating, Galium): 100%; Soybean plant response rating (crop injury, 0-100 scale) at 125 g/ha (soybean; 125 g ai/ha, postemergence, read-out: Plant response rating (0 to 100), Soybean): 95%; Soybean plant response rating (crop injury, 0-100 scale) at 250 g/ha (soybean; 250 g ai/ha, postemergence): 95%; Soybean plant response rating (crop injury, 0-100 scale) at 31 g/ha (soybean; Postemergence, 31 g ai/ha, scale 0 to 100 (0 no effect, 100 complete control), 13 to 15 days): 40%; Soybean plant response rating (crop injury, 0-100 scale) at 62 g/ha (soybean; Postemergence, 62 g ai/ha, scale 0 to 100 (0 no effect, 100 complete control)): 90%; Corn plant response rating (crop injury, 0 = no effect, 100 = complete kill) at 125 g/ha (corn; 125 g ai/ha, 0 to 100 scale where 0 is no effect and 100 is complete control): 20%; plant injury at 500 g/ha (corn; 500 g ai/ha, 0 to 100 scale, 0 no effect, 100 complete control, approx. 10 days, read-out: Corn plant response rating): 80%; pest or weed control at 62 g/ha (morningglory; 62 g ai/ha, preemergence, scale 0 (no effect) to 100 (complete control), read-out: Morningglory plant response rating): 95%; pest or weed control at 125 g/ha (morningglory; 125 g ai/ha, preemergence, scale 0 (no effect) to 100 (complete control), read-out: Morningglory plant response rating): 100%; pest or weed control at 250 g/ha (morningglory; 250 g ai/ha, preemergence, scale 0 (no effect) to 100 (complete control), read-out: Morningglory plant response rating): 100%; pest or weed control at 31 g/ha (morningglory; Preemergence, 31 g ai/ha, scale 0 to 100, 0 no effect, 100 complete control, read-out: Plant response rating, Morningglory): 55%; pest or weed control at 125 g/ha (lambsquarters; 125 g ai/ha, postemergence, read-out: Plant response rating (0 to 100), Lambsquarters): 90%; pest or weed control at 250 g/ha (lambsquarters; 250 g ai/ha, postemergence, read-out: Plant response rating (0 to 100), Lambsquarters): 100%; pest or weed control at 31 g/ha (lambsquarters; Postemergence, 31 g ai/ha, scale 0 to 100 (0 no effect, 100 complete control), 13 to 15 days, read-out: Plant response rating, Lambsquarters): 85%; pest or weed control at 62 g/ha (lambsquarters; Postemergence, 62 g ai/ha, scale 0 to 100 (0 no effect, 100 complete control), read-out: Plant response rating, Lambsquarters): 90%; pest or weed control at 62 g/ha (Italian ryegrass; 62 g ai/ha, preemergence, scale 0 (no effect) to 100 (complete control), read-out: Ryegrass, Italian plant response rating): 55%; pest or weed control at 125 g/ha (Italian ryegrass; 125 g ai/ha, preemergence, scale 0 (no effect) to 100 (complete control), read-out: Ryegrass, Italian plant response rating): 80%; pest or weed control at 250 g/ha (Italian ryegrass; 250 g ai/ha, preemergence, scale 0 (no effect) to 100 (complete control), read-out: Ryegrass, Italian plant response rating): 90%; pest or weed control at 31 g/ha (Italian ryegrass; Preemergence, 31 g ai/ha, scale 0 to 100, 0 no effect, 100 complete control, read-out: Plant response rating, Ryegrass, Italian): 5%; pest or weed control at 125 g/ha (barnyardgrass [2]; [5]): 90%; pest or weed control at 500 g/ha (barnyardgrass [2]; 500 g ai/ha, 0 to 100 scale, 0 no effect, 100 complete control, read-out: Plant response rating Barnyardgrass): 100%; pest or weed control at 62 g/ha (johnsongrass; 62 g ai/ha, preemergence, scale 0 (no effect) to 100 (complete control), read-out: Johnsongrass plant response rating): 25%; pest or weed control at 125 g/ha (johnsongrass; 125 g ai/ha, preemergence, scale 0 (no effect) to 100 (complete control), read-out: Johnsongrass plant response rating): 90%; pest or weed control at 250 g/ha (johnsongrass; 250 g ai/ha, preemergence, scale 0 (no effect) to 100 (complete control), read-out: Johnsongrass plant response rating): 100%; pest or weed control at 31 g/ha (johnsongrass; Preemergence, 31 g ai/ha, scale 0 to 100, 0 no effect, 100 complete control, read-out: Plant response rating, Johnsongrass): 15%; pest or weed control at 125 g/ha (barnyardgrass [3]; [5]): 90%; pest or weed control at 500 g/ha (barnyardgrass [3]; 500 g ai/ha, 0 to 100 scale, 0 no effect, 100 complete control, approx. 10 days, read-out: Barnyardgrass plant response rating): 100%; pest or weed control at 125 g/ha (galium [4]; 125 g ai/ha, postemergence, read-out: Plant response rating (0 to 100), Galium): 85%; pest or weed control at 250 g/ha (galium [4]; 250 g ai/ha, postemergence, read-out: Plant response rating (0 to 100), Galium): 90%; pest or weed control at 31 g/ha (galium [4]; Postemergence, 31 g ai/ha, scale 0 to 100 (0 no effect, 100 complete control), 13 to 15 days, read-out: Plant response rating, Galium): 60%; pest or weed control at 62 g/ha (galium [4]; Postemergence, 62 g ai/ha, scale 0 to 100 (0 no effect, 100 complete control), read-out: Plant response rating, Galium): 60%; pest or weed control at 125 g/ha (velvetleaf; 125 g ai/ha, postemergence, read-out: Plant response rating (0 to 100), Velvetleaf): 70%; pest or weed control at 250 g/ha (velvetleaf; 250 g ai/ha, postemergence, read-out: Plant response rating (0 to 100), Velvetleaf): 90%; pest or weed control at 31 g/ha (velvetleaf; Postemergence, 31 g ai/ha, scale 0 to 100 (0 no effect, 100 complete control), 13 to 15 days, read-out: Plant response rating, Velvetleaf): 50%; pest or weed control at 62 g/ha (velvetleaf; Postemergence, 62 g ai/ha, scale 0 to 100 (0 no effect, 100 complete control), read-out: Plant response rating, Velvetleaf): 60%; pest or weed control at 125 g/ha (giant foxtail; 125 g ai/ha, postemergence, read-out: Plant response rating (0 to 100), Foxtail, Giant): 70%; pest or weed control at 250 g/ha (giant foxtail; 250 g ai/ha, postemergence, read-out: Plant response rating (0 to 100), Foxtail, Giant): 70%; pest or weed control at 31 g/ha (giant foxtail; Postemergence, 31 g ai/ha, scale 0 to 100 (0 no effect, 100 complete control), 13 to 15 days, read-out: Plant response rating, Foxtail, Giant): 45%; pest or weed control at 62 g/ha (giant foxtail; Postemergence, 62 g ai/ha, scale 0 to 100 (0 no effect, 100 complete control), read-out: Plant response rating, Foxtail, Giant): 50%; pest or weed control at 125 g/ha (ragweed; 125 g ai/ha, postemergence, read-out: Plant response rating (0 to 100), Ragweed): 80%; pest or weed control at 250 g/ha (ragweed; 250 g ai/ha, postemergence, read-out: Plant response rating (0 to 100), Ragweed): 95%; pest or weed control at 31 g/ha (ragweed; Postemergence, 31 g ai/ha, scale 0 to 100 (0 no effect, 100 complete control), 13 to 15 days, read-out: Plant response rating, Ragweed): 40%; pest or weed control at 62 g/ha (ragweed; Postemergence, 62 g ai/ha, scale 0 to 100 (0 no effect, 100 complete control), read-out: Plant response rating, Ragweed): 45%; pest or weed control at 125 g/ha (blackgrass; 125 g ai/ha, postemergence, read-out: Plant response rating (0 to 100), Blackgrass): 10%; pest or weed control at 250 g/ha (blackgrass; 250 g ai/ha, postemergence, read-out: Plant response rating (0 to 100), Blackgrass): 25%; pest or weed control at 31 g/ha (blackgrass; Postemergence, 31 g ai/ha, scale 0 to 100 (0 no effect, 100 complete control), 13 to 15 days, read-out: Plant response rating, Blackgrass): 5%; pest or weed control at 62 g/ha (blackgrass; Postemergence, 62 g ai/ha, scale 0 to 100 (0 no effect, 100 complete control), read-out: Plant response rating, Blackgrass): 5%; plant injury at 125 g/ha (wheat; 125 g ai/ha, 0 to 100 scale where 0 is no effect and 100 is complete control, read-out: Plant response rating, Wheat): 40%; plant injury at 500 g/ha (wheat; 500 g ai/ha, 0 to 100 scale, 0 no effect, 100 complete control, read-out: Plant response rating Wheat): 100%
